Entries after “also recorded” stand apart in the source; their conditions may differ.
Tested on: J774A.1 macrophages
Assay: Serum-mediated cholesterol efflux (BODIPY-cholesterol)
Assay type: cell-based
Details: compounds 10 µM, 24 h, then serum 6 h; pioglitazone 3 µM positive control

Question: With `C/C=C/C=C/C(O)=C1/C(=O)C(C)=C(O)[C@@]2(C)O[C@@]3(O)[C@@](C)(O)C(=O)C(C(=O)CC/C=C/C)=C(O)[C@@]3(C)[C@@H]12` [Compound 11, dihydrobisvertinolone] as the molecule, how does the “cholesterol efflux enhancing activity” value read?
Answer: significant cholesterol efflux enhancing activity; also recorded: exhibited cholesterol efflux enhancing activity

— article PMC8997241, “Structurally Various Sorbicillinoids From an Endophytic Fungus Acremonium citrinum SS-g13” (Frontiers in Microbiology, 2022)
